Laboratory results reported in ChEMBL document CHEMBL4007384, “Synthesis and optimization of furano[3,2-d]pyrimidines as selective spleen tyrosine kinase (Syk) inhibitors” (Bioorg Med Chem Lett, 2016).
Values after ≈ are worked out from the molar mass of the structure shown.

Key:
[1] = Unbound clearance in rat microsomes; type: ADME, Microsome
[2] = Unbound clearance in human microsomes; type: ADME, Microsome
[3] = Solubility in pH 5 FeSSIF at 0.2 mg sonicated for 10 mins followed by incubation for 2 days by HPLC analysis; type: physicochemical
Rattus norvegicus = assay: Antiarthritic activity in rat model of collagen-induced arthritis assessed as inhibition of paw swelling at 3 mg/kg, bid for 8 days relative to control; type: functional; settings: 192 h

CL free [1] [mL/min/kg] | CL free [2] [mL/min/kg] | solubility at 48 h [3] [µM] | SMILES | inhibition in vivo at 3 mg/kg (Rattus norvegicus) [%]
880 | – | – | CC1(C)CCC(=O)Nc2cc(Nc3nc(NCC(F)(F)F)c4occc4n3)ccc21 | –
182 | 123 | 27 (≈ 12.2 µg/mL) | COC(=O)N[C@@H]1CC(C)(C)c2ccc(Nc3nc(NC4CC4)c4occc4n3)cc2NC1=O | –
373 | 307 | > 200 | CCCNc1nc(Nc2ccc3c(c2)NC(=O)COC3(C)C)nc2ccoc12 | –
177 | – | – | CC1(C)Oc2ccc(Nc3nc(NCC(F)(F)F)c4occc4n3)cc2NC1=O | –
– | – | – | C[C@]12C=CC(=O)C=C1CC[C@@H]1[C@@H]2[C@@H](O)C[C@@]2(C)[C@H]1CC[C@]2(O)C(=O)CO [PREDNISOLONE] | 86
332 | 118 | – | COC(=O)N[C@H]1CC(C)(C)c2ccc(Nc3nc(NC4CC4)c4occc4n3)cc2NC1=O | –
